Read-outs that look alike come from different tables or passages of the source. Marks after values point to notes of the source that are not given here. Starred links: 1 amine or outer side, 2 acyl side, 3 side chain; linkers in the order of their positions; H or OH if unused. Non-standard residues stand in square brackets, D forms with d. Groups on a side chain read outwards from the residue. No end group written: not given here. *: point of attachment. C20 diacid = O=C(O)CCCCCCCCCCCCCCCCCCC(=O)*; C18 diacid = O=C(O)CCCCCCCCCCCCCCCCC(=O)*; αMePhe(2-F) = C[C@](N)(Cc1ccccc1F)C(=O)O; γGlu = O=C(O)[C@H](CCC(=O)[*:2])N[*:1]; NMeY = CN[C@@H](Cc1ccc(O)cc1)C(=O)O; αMe4Pal = C[C@](N)(Cc1ccncc1)C(=O)O; αMeY = C[C@](N)(Cc1ccc(O)cc1)C(=O)O; αMeF = C[C@](N)(Cc1ccccc1)C(=O)O; 4Pal = N[C@@H](Cc1ccncc1)C(=O)O; αMeL = CC(C)C[C@](C)(N)C(=O)O; αMeS = C[C@](N)(CO)C(=O)O; Orn = NCCC[C@H](N)C(=O)O; AEEA = NCCOCCOCC(=O)O; Aib = CC(C)(N)C(=O)O
How the values were obtained:
human GLP1-R = human GLP1-R (Homo sapiens, UniProt P43220); test: GLP1-R internalization assay in HEK293 cells; assay type: cell-based; conditions: for EC50: HEK293 cells expressing SNAP-GLP-1R, read-out: GLP1R Internalization EC50; for Internalization % TOP: normalized to maximum concentration of GLP-1 (100%)
human GLP1-R, sequence (P43220 24-463): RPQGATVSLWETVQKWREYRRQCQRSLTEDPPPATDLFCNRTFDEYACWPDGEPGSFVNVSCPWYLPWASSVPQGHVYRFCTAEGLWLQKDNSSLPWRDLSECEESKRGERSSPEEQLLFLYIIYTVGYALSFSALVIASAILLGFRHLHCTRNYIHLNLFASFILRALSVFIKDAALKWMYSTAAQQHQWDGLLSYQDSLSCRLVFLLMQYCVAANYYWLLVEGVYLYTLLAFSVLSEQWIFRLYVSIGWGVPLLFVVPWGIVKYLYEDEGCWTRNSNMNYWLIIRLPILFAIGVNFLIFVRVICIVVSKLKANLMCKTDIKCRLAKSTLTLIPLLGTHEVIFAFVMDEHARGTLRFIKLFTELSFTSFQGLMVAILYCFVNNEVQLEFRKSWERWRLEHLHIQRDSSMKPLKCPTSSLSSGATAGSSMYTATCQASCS

hGLP-1R [1] = target: T1, hGLP-1R (Homo sapiens, UniProt P43220); test: Functional cAMP activation in the presence of 0.1% casein (no HSA); assay type: cell-based; conditions: read-out: Relative cAMP EC50, hGLP-1R;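 further: intracellular cAMP rise after 30 min at 37 °C read by HTRF, normalized between buffer only (0%) and maximal control ligand (100%), four-parameter variable-slope fit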
Target sequence in this assay (P43220 24-463): as above

[2] = Body weight in diet-induced obese C57BL/6 mice; assay type: in vivo; conditions: percent of starting weight, DIO mice, mean ± SEM n=5
Method: To investigate the effect of the polypeptides as described herein on weight loss, exemplary polypeptides are dosed to C57BL/6 diet-induced obese (DIO) mice. Specifically, DIO male C57BL/6 mice (Taconic, Germantown, NY) maintained on a calorie-rich diet are used in the following studies. Mice are individually housed in a temperature-controlled (24° C.) facility with 12-hour light/dark cycle (lights on 22:00) and free access to food (TD95217) and water. After a minimum of 2 weeks acclimation to the facility, the mice are randomized according to their body weight, so each experimental group of animals would have similar starting body weight. The body weights range from 41 to 50 g. All groups contain 5 mice. […] Treatments are administered by subcutaneous (SC) injection (10 mL/kg) to ad libitum fed DIO mice 30 to 90 minutes prior to the onset of the dark cycle either once daily (QD) or once every 3 days (Q3D) for 9-16 days. Body weight and food intake are measured daily throughout the study. Body weight is presented as percent of the starting weight. […] Data are presented as mean±SEM of 5 animals per group in Table 7 below. Statistical analysis is performed using repeated measures ANOVA, followed by Dunnett's method comparison test.

hGcgR = hGcgR (Homo sapiens, UniProt P47871); test: Functional cAMP activation in the presence of 0.1% casein (no HSA); assay type: cell-based; conditions: read-out: Relative cAMP EC50, hGcgR;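 further: intracellular cAMP rise after 30 min at 37 °C, read by HTRF against a cAMP standard curve, scaled from buffer only (0%) to maximal control ligand response (100%)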
hGcgR, sequence (P47871 26-477): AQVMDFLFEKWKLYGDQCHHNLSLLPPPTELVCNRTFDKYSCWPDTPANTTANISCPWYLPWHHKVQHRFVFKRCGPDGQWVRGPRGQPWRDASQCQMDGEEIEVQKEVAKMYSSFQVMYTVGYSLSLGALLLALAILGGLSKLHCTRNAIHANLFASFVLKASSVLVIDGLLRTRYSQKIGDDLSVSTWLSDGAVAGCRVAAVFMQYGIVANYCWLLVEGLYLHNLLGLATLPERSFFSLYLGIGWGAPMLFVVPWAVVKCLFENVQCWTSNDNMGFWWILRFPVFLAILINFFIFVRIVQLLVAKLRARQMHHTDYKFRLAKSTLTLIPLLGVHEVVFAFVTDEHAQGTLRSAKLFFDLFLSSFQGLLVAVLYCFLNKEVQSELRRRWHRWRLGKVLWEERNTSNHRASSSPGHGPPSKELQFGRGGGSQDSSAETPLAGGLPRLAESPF

hGLP-1R [3] = target: T1, hGLP-1R; test: GLP-1R CHO cell β-arrestin recruitment assay; assay type: cell-based; set-up: host or cells: CHO-K1 (PathHunter, assay-ready frozen cells); conditions: for EC50: CHO-K1 PathHunter, β-arrestin-2, 0.1% casein, read-out: hGLP1R β-arrestin Rel EC50; for % Stimulation Max: normalized to GLP-1(7-36) as maximum control;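 on all read-outs here: luminescence read after 90 min peptide exposure at 37 °C and a further 60 min with detection reagent at room temperature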
Target sequence in this assay (P43220 24-463): as the sequence (P43220 24-463) above
Target sequence in this assay (P32121 whole entry partner): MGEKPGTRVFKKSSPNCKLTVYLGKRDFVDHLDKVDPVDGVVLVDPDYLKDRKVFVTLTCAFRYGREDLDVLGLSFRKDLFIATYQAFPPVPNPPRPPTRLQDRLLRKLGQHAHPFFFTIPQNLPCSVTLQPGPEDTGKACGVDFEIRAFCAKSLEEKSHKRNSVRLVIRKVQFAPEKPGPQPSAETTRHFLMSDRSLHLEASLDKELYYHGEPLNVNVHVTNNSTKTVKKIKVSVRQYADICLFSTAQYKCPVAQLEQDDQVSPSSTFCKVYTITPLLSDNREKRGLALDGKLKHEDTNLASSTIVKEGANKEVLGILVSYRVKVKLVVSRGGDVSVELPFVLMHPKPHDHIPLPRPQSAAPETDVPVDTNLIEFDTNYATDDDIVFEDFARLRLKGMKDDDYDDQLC

hGIPR [4] = target: T2, hGIPR (Homo sapiens, UniProt P48546); test: Functional cAMP activity in the presence of 1% HSA; assay type: cell-based; conditions: read-out: cAMP Rel EC50, hGIPR
T2 sequence (P48546 22-466): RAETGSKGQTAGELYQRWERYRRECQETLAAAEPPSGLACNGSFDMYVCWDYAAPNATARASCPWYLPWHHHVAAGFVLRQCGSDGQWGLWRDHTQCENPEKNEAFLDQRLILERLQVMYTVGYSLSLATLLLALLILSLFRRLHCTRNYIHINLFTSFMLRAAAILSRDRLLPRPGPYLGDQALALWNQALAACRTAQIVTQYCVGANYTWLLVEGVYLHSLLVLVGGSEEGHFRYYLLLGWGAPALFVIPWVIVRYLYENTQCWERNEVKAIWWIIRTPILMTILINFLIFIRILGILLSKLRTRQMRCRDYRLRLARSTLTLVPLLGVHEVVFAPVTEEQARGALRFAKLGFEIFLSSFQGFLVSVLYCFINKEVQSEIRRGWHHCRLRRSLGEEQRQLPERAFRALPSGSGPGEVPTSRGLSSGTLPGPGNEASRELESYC

human GcgR = human GcgR (Homo sapiens, UniProt P47871); test: Functional cAMP activity in the presence of 1% HSA; assay type: cell-based; conditions: read-out: cAMP Rel EC50, hGcgR
human GcgR, sequence (P47871 26-477): as the sequence (P47871 26-477) above

hGLP-1R [5] = target: T1, hGLP-1R; test: Functional cAMP activity in the presence of 1% HSA; assay type: cell-based; conditions: read-out: cAMP Rel EC50, hGLP-1R
Target sequence in this assay (P43220 24-463): as the sequence (P43220 24-463) above

hGIPR [6] = target: T2, hGIPR; test: Functional cAMP activation in the presence of 0.1% casein (no HSA); assay type: cell-based; conditions: read-out: Relative cAMP EC50, hGIPR;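 further: intracellular cAMP rise after 30 min at 37 °C read by HTRF against a standard curve, scaled between buffer alone (0%) and top control ligand concentration (100%), four-parameter fit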
[7] = Pepsin stability assay in simulated gastric fluid; assay type: in vitro ADME; conditions: pH 1.2, % Intact (SD)
Method: A pepsin stability assay is utilized to determine the relative stability of Example polypeptides in a simulated gastric proteolytic environment. […] The relative amount of intact peptide is quantified by mass spectrometry (MS). […] The examples were dissolved in 50 mM Tris buffer pH 8.0 at a concentration of 10 mg/mL as a stock solution. Pepsin A was reconstituted in SGF at 10 mg/mL. […] The example peptide and pepsin solutions were then incubated at 37° C. in a shaking incubator set at 100 rpm. Samples (25 μL) were withdrawn at different time intervals and quenched with 100 mM ammonium bicarbonate pH 9 (50 μL) to stop proteolytic activity. All samples were centrifuged, and the supernatants were analyzed by LC/MS to determine the remaining intact peptide.

[8] = tested on: Intestinal organoid from Göttingen minipig jejunum tissue, 2D monolayer; test: Cell based in vitro permeability (Papp) assay; assay type: in vitro ADME
Method in brief: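 2D monolayers derived from Göttingen minipig jejunal organoids on transwell inserts. Basal samples collected at 20 min in the presence of C10. Peptide in apical and basal compartments quantified by LC/MS to give Papp.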

[9] = in the presence of 0.1% casein (no HSA), geometric mean

| EC50 (human GLP1-R) | Internalization % TOP (human GLP1-R) | EC50 (hGLP-1R [1]; [9]) | EC50 (hGcgR; [9]) | EC50 (hGLP-1R [3]) | % Stimulation Max (hGLP-1R [3]) | EC50 (hGIPR [4]) | EC50 (human GcgR) | EC50 (hGLP-1R [5]) | EC50 (hGIPR [6]; [9]) | EC50 (hGLP-1R [1]) | EC50 (hGcgR) | remaining at 0.25 h, 0.4 mg/mL [7] | remaining at 0.5 h, 0.4 mg/mL [7] | remaining at 1 h, 0.4 mg/mL [7] | EC50 (hGIPR [6]) | Substance | Body weight (%) ([2]; 10 nmol/kg SC QD, 16 days) | Body weight (%) ([2]; 10 nmol/kg SC Q3D, 14 days) | Relative Papp (Compared to internal standard) [8] |
| --- | --- | --- | --- | --- | --- | --- | --- | --- | --- | --- | --- | --- | --- | --- | --- | --- | --- | --- | --- |
| 19.2 nM | 87.2% | 0.536 nM | 1.72 nM | 14 nM | 55.2% | 21.8 nM | 517 nM | 171 nM | 0.0806 nM |  |  |  |  |  |  | H-Y[Aib]QGT[αMePhe(2-F)]TSDYSILLDKIAAK([AEEA-γGlu-C20 diacid])AFIEYLIEGGPSSGEPPPSEG-NH2 [Example 296] | 49.64 ± 1.97 % |  |  |
|  |  |  |  |  |  | 0.857 nM | 203 nM | 33.3 nM |  | 0.266 nM | 1.25 nM | 100% | 113% | 103% | 0.00688 nM | H-Y[Aib]QGT[αMePhe(2-F)]TSD[4Pal][αMeS]I[αMeL]LD[Orn]K([AEEA-γGlu-C18 diacid])AQ[αMe4Pal]EFI[dE][αMeY]LIEGGPSSGEPPPSGGGE-NH2 [Example 742] |  |  |  |
| 31.4 nM | 88.4% | 0.831 nM | 2.15 nM | 16.4 nM | 44.1% | 61.1 nM | 605 nM | 232 nM | 0.126 nM |  |  |  |  |  |  | H-Y[Aib]QGT[αMePhe(2-F)]TSDYSKLLDKIAQK([AEEA-γGlu-C20 diacid])AFIEYLLEGGPSSGEPPPSEG-NH2 [Example 295] | 51.58 ± 3.24 % |  |  |
| 30.3 nM | 72.4% | 1.89 nM | 5.17 nM | 16.3 nM | 18% | 59.1 nM | 3580 nM | 616 nM | 0.234 nM |  |  |  |  |  |  | H-Y[Aib]QGTFTSDFSI[αMeL]LDKK([AEEA-γGlu-C20 diacid])AQ[Aib]AFIEYLLEGGPSSGEPPPSEG-NH2 [Example 288] |  | 86.18 ± 0.67 % |  |
|  |  | 0.34 nM | 2.68 nM | 3.94 nM | 83.5% | 53.4 nM | 878 nM | 90 nM | 0.43 nM |  |  |  |  |  |  | H-H[Aib]QGT[αMePhe(2-F)]TSDYSILLDKK([AEEA-γGlu-C20 diacid])AA[Aib]AFIEYLIETGPSSGEPPPSEG-NH2 [Example 290] | 65.40 ± 3.45 % |  |  |
|  |  | 2.96 nM | 3.26 nM | 60.2 nM | 33.5% | 325 nM | 2320 nM | 1130 nM | 0.626 nM |  |  |  |  |  |  | H-[NMeY][Aib]QGT[αMeF]TSDYSSLLDKIAAK([AEEA-AEEA-γGlu-C20 diacid])AFIEYLLEGGPSSGEPPPSEG-NH2 [Example 297] | 48.42 ± 2.86 % |  |  |

| Substance | EC50 (human GLP1-R) | Internalization % TOP (human GLP1-R) | EC50 (hGLP-1R [1]; [9]) | EC50 (hGcgR; [9]) | EC50 (hGLP-1R [3]) | % Stimulation Max (hGLP-1R [3]) | EC50 (hGIPR [4]) | EC50 (human GcgR) | EC50 (hGLP-1R [5]) | EC50 (hGIPR [6]; [9]) | EC50 (hGLP-1R [1]) | EC50 (hGcgR) | remaining at 0.25 h, 0.4 mg/mL [7] | remaining at 0.5 h, 0.4 mg/mL [7] | remaining at 1 h, 0.4 mg/mL [7] | EC50 (hGIPR [6]) | Body weight (%) ([2]; 10 nmol/kg SC QD, 16 days) | Body weight (%) ([2]; 10 nmol/kg SC Q3D, 14 days) | Relative Papp (Compared to internal standard) [8] |
| --- | --- | --- | --- | --- | --- | --- | --- | --- | --- | --- | --- | --- | --- | --- | --- | --- | --- | --- | --- |
| Y[Aib]QGTFTSDFS[Orn][αMeL]LDKK([AEEA-γGlu-C18 diacid])AQ[Aib]AFIEYLLEGGPSSGAPPPGGS-NH2 [Example 62] | 40.3 nM | 44.9% | 2.72 nM | 3.96 nM |  |  | 31.2 nM | 396 nM | 299 nM | 0.146 nM |  |  |  |  |  |  |  | 88.05 +/− 1.08*** % | 0.03 |

Reference: patent publication US20240270821A1, “GIP/GLP1/GCG TRI-RECEPTOR AGONISTS AND USES THEREOF” (priority 2023, published 2024)
